{"source": "ChEMBL document CHEMBL3046161", "about": "“Synthesis of potential antitubercular and antimicrobial s-triazine-based scaffolds via Suzuki cross-coupling reaction” (2013)", "key": {"[1]": {"system": "Salmonella typhi", "experiment": "Antibacterial activity against Salmonella enterica subsp. enterica serovar Typhi MTCC 733 assessed as growth inhibition at 100 ug/disk after 24 hr by agar disk diffusion method", "format": "functional", "details": "MTCC 733, 24 h, read-out: IZ"}, "[2]": {"system": "Pseudomonas aeruginosa", "experiment": "Antibacterial activity against Pseudomonas aeruginosa MTCC 741 assessed as growth inhibition after 24 hr by agar streak dilution method", "format": "functional", "details": "MTCC 741, 24 h"}, "[3]": {"system": "Pseudomonas aeruginosa", "experiment": "microbe, parasite or virus in culture", "details": "MTCC 741, 24 h, read-out: IZ", "description": "Antibacterial activity against Pseudomonas aeruginosa MTCC 741 assessed as growth inhibition at 100 ug/disk after 24 hr by agar disk diffusion method"}, "[4]": {"system": "Staphylococcus aureus", "experiment": "Antibacterial activity against Staphylococcus aureus MTCC 96 assessed as growth inhibition at 100 ug/disk after 24 hr by agar disk diffusion method", "details": "MTCC 96, 24 h, read-out: IZ"}, "[5]": {"system": "Proteus vulgaris", "experiment": "Antibacterial activity against Proteus vulgaris MTCC 1771 assessed as growth inhibition after 24 hr by agar streak dilution method", "format": "functional", "details": "MTCC 1771, 24 h"}, "[6]": {"system": "Bacillus cereus", "experiment": "Antibacterial activity against Bacillus cereus MTCC 430 assessed as growth inhibition at 100 ug/disk after 24 hr by agar disk diffusion method", "format": "functional", "details": "MTCC 430, 24 h, read-out: IZ"}, "[7]": {"system": "Shigella flexneri", "experiment": "Antibacterial activity against Shigella flexneri MTCC 1457 assessed as growth inhibition at 100 ug/disk after 24 hr by agar disk diffusion method", "format": "functional", "details": "MTCC 1457, 24 h, read-out: IZ"}, "[8]": {"system": "Proteus vulgaris", "experiment": "Antibacterial activity against Proteus vulgaris MTCC 1771 assessed as growth inhibition at 100 ug/disk after 24 hr by agar disk diffusion method", "format": "functional", "details": "MTCC 1771, 24 h, read-out: IZ"}, "[9]": {"system": "Escherichia coli", "experiment": "microbe, parasite or virus in culture", "details": "MTCC 739, 24 h, read-out: IZ", "description": "Antibacterial activity against Escherichia coli MTCC 739 assessed as growth inhibition at 100 ug/disk after 24 hr by agar disk diffusion method"}, "[10]": {"system": "Staphylococcus aureus", "experiment": "Antibacterial activity against Staphylococcus aureus MTCC 96 assessed as growth inhibition after 24 hr by agar streak dilution method", "format": "functional", "details": "MTCC 96, 24 h"}, "[11]": {"system": "Klebsiella pneumoniae", "experiment": "microbe, parasite or virus in culture", "details": "MTCC 109, 24 h, read-out: IZ", "description": "Antibacterial activity against Klebsiella pneumoniae MTCC 109 assessed as growth inhibition at 100 ug/disk after 24 hr by agar disk diffusion method"}, "[12]": {"system": "Shigella flexneri", "experiment": "Antibacterial activity against Shigella flexneri MTCC 1457 assessed as growth inhibition after 24 hr by agar streak dilution method", "format": "functional", "details": "MTCC 1457, 24 h"}, "[13]": {"system": "Salmonella typhi", "experiment": "Antibacterial activity against Salmonella enterica subsp. enterica serovar Typhi MTCC 733 assessed as growth inhibition after 24 hr by agar streak dilution method", "format": "functional", "details": "MTCC 733, 24 h"}, "[14]": {"system": "Bacillus cereus", "experiment": "Antibacterial activity against Bacillus cereus MTCC 430 assessed as growth inhibition after 24 hr by agar streak dilution method", "format": "functional", "details": "MTCC 430, 24 h"}, "[15]": {"system": "Klebsiella pneumoniae", "experiment": "Antibacterial activity against Klebsiella pneumoniae MTCC 109 assessed as growth inhibition after 24 hr by agar streak dilution method", "format": "functional", "details": "MTCC 109, 24 h"}}, "data": [{"smiles": "O=C(O)c1cn(C2CC2)c2cc(N3CCNCC3)c(F)cc2c1=O", "note": "[CIPROFLOXACIN]", "values": [{"measurement": "zone of inhibition at 100 µg/disc", "setting": "[1]", "value": 30, "unit": "mm"}, {"measurement": "MIC", "setting": "[2]", "value": 0.78, "unit": "µg/mL"}, {"measurement": "zone of inhibition at 100 µg/disc", "setting": "[3]", "value": 33, "unit": "mm"}, {"measurement": "zone of inhibition at 100 µg/disc", "setting": "[4]", "value": 30, "unit": "mm"}, {"measurement": "MIC", "setting": "[5]", "value": 0.39, "unit": "µg/mL"}, {"measurement": "zone of inhibition at 100 µg/disc", "setting": "[6]", "value": 31, "unit": "mm"}, {"measurement": "zone of inhibition at 100 µg/disc", "setting": "[7]", "value": 32, "unit": "mm"}, {"measurement": "zone of inhibition at 100 µg/disc", "setting": "[8]", "value": 31, "unit": "mm"}, {"measurement": "zone of inhibition at 100 µg/disc", "setting": "[9]", "value": 32, "unit": "mm"}, {"measurement": "MIC", "setting": "[10]", "value": 1.56, "unit": "µg/mL"}, {"measurement": "zone of inhibition at 100 µg/disc", "setting": "[11]", "value": 33, "unit": "mm"}, {"measurement": "MIC", "setting": "[12]", "value": 1.56, "unit": "µg/mL"}, {"measurement": "MIC", "setting": "[13]", "value": 0.39, "unit": "µg/mL"}, {"measurement": "MIC", "setting": "[14]", "value": 0.39, "unit": "µg/mL"}, {"measurement": "MIC", "setting": "[15]", "value": 0.78, "unit": "µg/mL"}]}]}
